Data on 24 compounds can be found in patent US20240383904A1, “HETEROCYCLIC COMPOUNDS” (Hoffmann-La Roche Inc., priority 2021, published 2024).

This assay deals with T1, MAGL (Homo sapiens, UniProt Q99685).
T1 sequence (Q99685 1-303): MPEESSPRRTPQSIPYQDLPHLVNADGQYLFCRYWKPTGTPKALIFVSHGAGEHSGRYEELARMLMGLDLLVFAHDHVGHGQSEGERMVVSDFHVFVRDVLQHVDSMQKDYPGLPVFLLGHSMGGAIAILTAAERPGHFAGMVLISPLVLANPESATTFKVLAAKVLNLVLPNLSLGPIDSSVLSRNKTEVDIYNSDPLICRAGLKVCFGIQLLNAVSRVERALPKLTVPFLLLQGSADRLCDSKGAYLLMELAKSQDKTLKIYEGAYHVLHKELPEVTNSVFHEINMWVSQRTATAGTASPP
In words: 2-AG assay: MAGL inhibitory activity by hydrolysis of 2-arachidonoylglycerol to arachidonic acid, followed by mass spectrometry. In kind it is biochemical. The following applies: 15 min preincubation, 30 min reaction at RT, 8 μM 2-arachidonoylglycerol.
Regarding `O=C1NC2(CO1)CN(C(=O)N1CC3(CCC(Cc4ccc(OC(F)F)nc4)CC3)C1)C2` [Example 105, 2-[7-[[6-(difluoromethoxy)-3-pyridyl]methyl]-2-azaspiro[3.5]nonane-2-carbonyl]-7-oxa-2,5-diazaspiro[3.4]octan-6-one], the midpoint of inhibition, the IC50, lay at 0.05 nM.
With `O=C1NC2(CO1)CN(C(=O)N1CC3(CCC(Oc4cc(Cl)ccc4Cl)CC3)C1)C2` [Example 106, 2-[7-(2,5-dichlorophenoxy)-2-azaspiro[3.5]nonane-2-carbonyl]-7-oxa-2,5-diazaspiro[3.4]octan-6-one] the figure was 0.05 nM.
With `O=C1NC2(CO1)CN(C(=O)N1CC3(CC(c4ccc(C(F)(F)F)cc4F)C3)C1)C2` [Example 107] the figure was 0.08 nM; with `O=C1NC2(CO1)CN(C(=O)N1CC3(CCC(Cc4ncc(F)cc4F)CC3)C1)C2` [Example 108, 2-[7-[(3,5-difluoro-2-pyridyl)methyl]-2-azaspiro[3.5]nonane-2-carbonyl]-7-oxa-2,5-diazaspiro[3.4]octan-6-one], 0.18 nM.
Regarding `CS(=O)(=O)c1ccc(CC2CCC3(C2)CN(C(=O)N2CC4(COC(=O)N4)C2)C3)cc1C(F)(F)F` (stereo not drawn) [Example 109, 2-[6-[4-mesyl-3-(trifluoromethyl)benzyl]-2-azaspiro[3.4]octane-2-carbonyl]-7-oxa-2,5-diazaspiro[3.4]octan-6-one], the midpoint of inhibition, the IC50, lay at 0.21 nM.
The value for `O=C1NC2(CO1)CN(C(=O)N1CC3(CCC(Cc4ccc(C(F)(F)F)nc4)C3)C1)C2` (stereo not drawn) [Example 110, 2-[6-[[6-(trifluoromethyl)-3-pyridyl]methyl]-2-azaspiro[3.4]octane-2-carbonyl]-7-oxa-2,5-diazaspiro[3.4]octan-6-one] was 0.24 nM; that for `O=C1NC2(CO1)CN(C(=O)N1CC3(CC[C@H](Cc4cnc(C(F)(F)F)cn4)C3)C1)C2` [Example 111, 2-[(6S)-6-[[5-(trifluoromethyl)pyrazin-2-yl]methyl]-2-azaspiro[3.4]octane-2-carbonyl]-7-oxa-2,5-diazaspiro[3.4]octan-6-one] was 0.31 nM.
Consider `O=C1NC2(CO1)CN(C(=O)N1CC3(CCC(Cc4cnc(C(F)(F)F)cn4)CC3)C1)C2` [Example 112, 2-[7-[[5-(trifluoromethyl)pyrazin-2-yl]methyl]-2-azaspiro[3.5]nonane-2-carbonyl]-7-oxa-2,5-diazaspiro[3.4]octan-6-one], for which the IC50 (usually the concentration that inhibits the measured activity by half) stood at 0.57 nM.
With `O=C1NC2(CO1)CN(C(=O)N1CC3(CC[C@@H](Cc4cnc(C(F)(F)F)cn4)C3)C1)C2` [Example 113, 2-[(6R)-6-[[5-(trifluoromethyl)pyrazin-2-yl]methyl]-2-azaspiro[3.4]octane-2-carbonyl]-7-oxa-2,5-diazaspiro[3.4]octan-6-one] the figure was 0.62 nM; with `O=C1NC2(CO1)CN(C(=O)N1CC3(CCC(NS(=O)(=O)c4cccc(OC(F)(F)F)c4)CC3)C1)C2` [Example 114, N-[2-(6-keto-7-oxa-2,5-diazaspiro[3.4]octane-2-carbonyl)-2-azaspiro[3.5]nonan-7-yl]-3-(trifluoromethoxy)benzene-sulfonamide], 0.63 nM.
Compound `O=C1NC2(CO1)CN(C(=O)N1CC3(CC(c4ccc(F)cc4)C3)C1)C2` [Example 115, 2-[6-(4-fluorophenyl)-2-azaspiro[3.3]heptane-2-carbonyl]-7-oxa-2,5-diazaspiro[3.4]octan-6-one] displayed an IC50 of 1.02 nM.
Take `O=C1CCC2(CN(C(=O)N3CC4(CCC(NS(=O)(=O)c5cccc(OC(F)(F)F)c5)CC4)C3)C2)N1` [Example 116, N-[2-(6-keto-2,5-diazaspiro[3.4]octane-2-carbonyl)-2-azaspiro[3.5]nonan-7-yl]-3-(trifluoromethoxy)benzene-sulfonamide]: the midpoint of inhibition, the IC50, lay at 1.73 nM.
In turn, `CS(=O)(=O)c1cc(C(F)(F)F)ccc1C1CC2(C1)CN(C(=O)N1CC3(COC(=O)N3)C1)C2` [Example 117] gave an IC50 of 1.96 nM.
Turning to `CS(=O)(=O)c1ccc(O[C@H]2CCC3(C2)CN(C(=O)N2CC4(COC(=O)N4)C2)C3)cc1C(F)(F)F` [Example 118, 2-[(6S)-6-[4-mesy1-3-(trifluoromethyl)phenoxy]-2-azaspiro[3.4]octane-2-carbonyl]-7-oxa-2,5-diazaspiro[3.4]octan-6-one], half-maximal inhibition (IC50) required 2.49 nM.
In turn, `O=C1NC2(CO1)CN(C(=O)N1CC3(CC(NCC4(C(F)(F)F)CC4)C3)C1)C2` [Example 119, 2-[6-[[1-(trifluoromethyl)cyclopro-pyl]methylamino]-2-azaspiro[3.3]heptane-2-carbonyl]-7-oxa-2,5-diazaspiro[3.4]octan-6-one] had an IC50 of 2.93 nM.
The value for `O=C1CCC2(CN(C(=O)N3CC4(CCC(Cc5ccc(Cl)cn5)CC4)C3)C2)N1` [Example 120, 2-[7-[(5-chloro-2-pyridyl)methyl]-2-azaspiro[3.5]nonane-2-carbonyl]-2,5-diazaspiro[3.4]octan-6-one] was 2.95 nM; that for `O=C1CCC2(CN(C(=O)N3CC4(CCC(Cc5ccc(OC(F)F)nc5)CC4)C3)C2)N1` [Example 121, 2-[7-[[6-(difluoromethoxy)-3-pyridyl]methyl]-2-azaspiro[3.5]nonane-2-carbonyl]-2,5-diazaspiro[3.4]octan-6-one] was 4.19 nM; that for `CS(=O)(=O)c1ccc(Cl)cc1OC1CCC2(CC1)CN(C(=O)N1CC3(COC(=O)N3)C1)C2` [Example 122, 2-[7-(5-chloro-2-mesyl-phenoxy)-2-azaspiro[3.5]nonane-2-carobnyl]-7-oxa-2,5-diazaspiro[3.4]octan-6-one] was 4.33 nM.
For `O=C1NC2(CO1)CN(C(=O)N1CC3(CCC(Oc4ncc(C(F)(F)F)cn4)CC3)C1)C2` [Example 123, 2-[7-[5-(trifluoromethyl)pyrimi-din-2-yl]oxy-2-azaspiro[3.5]nonane-2-carbonyl]-7-oxa-2,5-diazaspiro[3.4]octan-6-one], half-maximal inhibition (IC50) was put at 4.43 nM.
`CS(=O)(=O)c1ccc(C2CC3(C2)CN(C(=O)N2CC4(COC(=O)N4)C2)C3)cc1` [Example 124, 2-[6-(4-mesylphenyl)-2-azaspiro[3.3]heptane-2-carbonyl]-7-oxa-2,5-diazaspiro[3.4]octan-6-one] displayed an IC50 of 4.54 nM.
Regarding `O=C1CCC2(CN(C(=O)N3CC4(CCC(Cc5ncc(F)cc5F)CC4)C3)C2)N1` [Example 125, 2-[7-[(3,5-difluoro-2-pyridyl)methyl]-2-azaspiro[3.5]nonane-2-carbonyl]-2,5-diazaspiro[3.4]octan-6-one], the concentration for half-maximal inhibition (IC50) came out at 5.81 nM.
With `O=C1NC2(CO1)CN(C(=O)N1CC3(CC(c4cncc(F)c4)C3)C1)C2` [Example 126, 2-[6-(5-fluoro-3-pyridyl)-2-azaspiro[3.3]heptane-2-carbonyl]-7-oxa-2,5-diazaspiro[3.4]octan-6-one] the figure was 21.3 nM; with `O=C1NCC2(CN(C(=O)N3CC4(CCC(OCC5(C(F)(F)F)CC5)CC4)C3)C2)N1` [Example 127, 2-[7-[[1-(trifluoromethyl)cyclopro-pyl]methoxy]-2-azaspiro[3.5]nonane-2-carbonyl]-2,5,7-triazaspiro[3.4]octan-6-one], 30.8 nM; with `O=C1NCC2(CN(C(=O)N3CC4(CCC(Cc5ccc(OC(F)F)nc5)CC4)C3)C2)N1` [Example 128, 2-[7-[[6-(difluoromethoxy)-3-pyridyl]methyl]-2-azaspiro[3.5]nonane-2-carbonyl]-2,5,7-triazaspiro[3.4]octan-6-one], 51.9 nM.
